Assay results as given in publication PMC7835237, “Dual mechanism β-amino acid polymers promoting cell adhesion” (Nature Communications, 2021).

Legend:
[1] = tested on: MC3T3-E1 preosteoblast cells; assay: Cell spreading area on modified surfaces (immunofluorescence analysis of cell morphology); format: cell-based, mouse
Experimental: The degree of cell spreading on a functionalized glass slide was measured by immunofluorescence analysis. After culture medium was removed, the slide was washed with PBS and then cells on the slide were fixed with 4% paraformaldehyde for 20 min. The slide was washed with PBS thrice and incubated for 5 min with 0.4% triton-X in PBS. Subsequently, the slide was washed with PBS thrice, followed by blocking with 3% bovine serum albumin (BSA) in PBS for 1 h at rt and then incubated with Alexa Fluor-555-conjugated anti-vinculin antibody (1:300 in PBS) overnight at 4 °C. The slide was washed with PBS thrice and incubated for 2 h with FITC-phalloidin (1:200 in PBS) and 4′-6-diamidino-2-phenylindole (DAPI) (5 μg/mL) for 10 min. The slide was washed with PBS thrice and its fluorescent images were collected on a confocal microscope (Nikon A1R, Japan).

[2] = tested on: MC3T3-E1 preosteoblast cells; assay: Cell adhesion in a serum-free environment with enzyme-pretreated cells; format: cell-based, mouse; design: unit not given here; details: serum-free medium, 1 day
Experimental: Cells were detached and washed thrice with a serum-free medium. In order to examine the impact of cell membrane-tethered proteins on cell adhesion in a serum-free environment, cells were suspended and incubated at 37 °C for 20 min in 3 mL serum-free α-MEM medium that contains 0.307 U/mL plasmin, 10 U/mL collagenase (types I and II), 2 U/mL heparinase (types I, II, and III), or 10 U/mL hyaluronidase, respectively. The protease-treated cells were washed and suspended in a serum-free α-MEM to a final concentration of 1.5 × 10^5 cells/mL. An aliquot of 10 μL this cell suspension was added to each individual well (formed by a 50-well silicon coverslip on the top of a glass slide) that has bottom surface modified with DM50CO50, RGD, or KRSR, respectively, and then the slide was placed in a petri dish for incubation at 37 °C for 2 h for cell attachment. Then additional fresh medium was added into the petri dish to immerse the entire slide and the whole dish was incubated for 1 day. After removing the medium, cells were stained with a live/dead staining solution and the fluorescent images were captured under a microscope (Nikon Eclipse Ti-S, Japan) at different locations of each well. The collected images were analyzed using Image-pro plus software.

[3] = Control: untreated cells, value 1 of n = 9
[4] = Control: untreated cells, value 2 of n = 9
[5] = Control: untreated cells, value 3 of n = 9
[6] = Control: untreated cells, value 4 of n = 9
[7] = Control: untreated cells, value 5 of n = 9
[8] = Control: untreated cells, value 6 of n = 9
[9] = Control: untreated cells, value 7 of n = 9
[10] = Control: untreated cells, value 8 of n = 9
[11] = Control: untreated cells, value 9 of n = 9
[12] = cells pretreated with Collagenase 10 U/mL, value 1 of n = 9
[13] = cells pretreated with Collagenase 10 U/mL, value 2 of n = 9
[14] = cells pretreated with Collagenase 10 U/mL, value 3 of n = 9
[15] = cells pretreated with Collagenase 10 U/mL, value 4 of n = 9
[16] = cells pretreated with Collagenase 10 U/mL, value 5 of n = 9
[17] = cells pretreated with Collagenase 10 U/mL, value 6 of n = 9
[18] = cells pretreated with Collagenase 10 U/mL, value 7 of n = 9
[19] = cells pretreated with Collagenase 10 U/mL, value 8 of n = 9
[20] = cells pretreated with Collagenase 10 U/mL, value 9 of n = 9
[21] = cells pretreated with Heparinase 2 U/mL, value 1 of n = 9
[22] = cells pretreated with Heparinase 2 U/mL, value 2 of n = 9
[23] = cells pretreated with Heparinase 2 U/mL, value 3 of n = 9
[24] = cells pretreated with Heparinase 2 U/mL, value 4 of n = 9
[25] = cells pretreated with Heparinase 2 U/mL, value 5 of n = 9
[26] = cells pretreated with Heparinase 2 U/mL, value 6 of n = 9
[27] = cells pretreated with Heparinase 2 U/mL, value 7 of n = 9
[28] = cells pretreated with Heparinase 2 U/mL, value 8 of n = 9
[29] = cells pretreated with Heparinase 2 U/mL, value 9 of n = 9
[30] = cells pretreated with Hyaluronidase 10 U/mL, value 1 of n = 9
[31] = cells pretreated with Hyaluronidase 10 U/mL, value 2 of n = 9
[32] = cells pretreated with Hyaluronidase 10 U/mL, value 3 of n = 9
[33] = cells pretreated with Hyaluronidase 10 U/mL, value 4 of n = 9
[34] = cells pretreated with Hyaluronidase 10 U/mL, value 5 of n = 9
[35] = cells pretreated with Hyaluronidase 10 U/mL, value 6 of n = 9
[36] = cells pretreated with Hyaluronidase 10 U/mL, value 7 of n = 9
[37] = cells pretreated with Hyaluronidase 10 U/mL, value 8 of n = 9
[38] = cells pretreated with Hyaluronidase 10 U/mL, value 9 of n = 9
[39] = cells pretreated with Plasmin 0.307 U/mL, value 1 of n = 9
[40] = cells pretreated with Plasmin 0.307 U/mL, value 2 of n = 9
[41] = cells pretreated with Plasmin 0.307 U/mL, value 3 of n = 9
[42] = cells pretreated with Plasmin 0.307 U/mL, value 4 of n = 9
[43] = cells pretreated with Plasmin 0.307 U/mL, value 5 of n = 9
[44] = cells pretreated with Plasmin 0.307 U/mL, value 6 of n = 9
[45] = cells pretreated with Plasmin 0.307 U/mL, value 7 of n = 9
[46] = cells pretreated with Plasmin 0.307 U/mL, value 8 of n = 9
[47] = cells pretreated with Plasmin 0.307 U/mL, value 9 of n = 9

KRSRGYC
Cell area of preosteoblast cells ([1]; cultured on modified surface for 3 h, replicate 1): 2526 | Cell area of preosteoblast cells ([1]; cultured on modified surface for 3 h, replicate 2): 2456 | Cell area of preosteoblast cells ([1]; cultured on modified surface for 3 h, replicate 3): 2659 | Cell area of preosteoblast cells ([1]; cultured on modified surface for 24 h, replicate 1): 4026 | Cell area of preosteoblast cells ([1]; cultured on modified surface for 24 h, replicate 2): 4102 | Cell area of preosteoblast cells ([1]; cultured on modified surface for 24 h, replicate 3): 4230 | Cell density (figure 6c) [2, 3]: 96 | Cell spreading area (figure 6b) [2, 3]: 2152 | Cell density (figure 6c) [2, 4]: 95 | Cell spreading area (figure 6b) [2, 4]: 2263 | Cell density (figure 6c) [2, 5]: 98 | Cell spreading area (figure 6b) [2, 5]: 2236 | Cell density (figure 6c) [2, 6]: 96 | Cell spreading area (figure 6b) [2, 6]: 2265 | Cell density (figure 6c) [2, 7]: 96 | Cell spreading area (figure 6b) [2, 7]: 2150 | Cell density (figure 6c) [2, 8]: 90 | Cell spreading area (figure 6b) [2, 8]: 2154 | Cell density (figure 6c) [2, 9]: 96 | Cell spreading area (figure 6b) [2, 9]: 2365 | Cell density (figure 6c) [2, 10]: 89 | Cell spreading area (figure 6b) [2, 10]: 2263 | Cell density (figure 6c) [2, 11]: 98 | Cell spreading area (figure 6b) [2, 11]: 2153 | Cell density (figure 6c) [2, 12]: 92 | Cell spreading area (figure 6b) [2, 12]: 2270.3 | Cell density (figure 6c) [2, 13]: 92 | Cell spreading area (figure 6b) [2, 13]: 2036 | Cell density (figure 6c) [2, 14]: 89 | Cell spreading area (figure 6b) [2, 14]: 2011.4 | Cell density (figure 6c) [2, 15]: 88 | Cell spreading area (figure 6b) [2, 15]: 2163 | Cell density (figure 6c) [2, 16]: 95 | Cell spreading area (figure 6b) [2, 16]: 2200 | Cell density (figure 6c) [2, 17]: 89 | Cell spreading area (figure 6b) [2, 17]: 2110.4 | Cell density (figure 6c) [2, 18]: 98 | Cell spreading area (figure 6b) [2, 18]: 2163 | Cell density (figure 6c) [2, 19]: 90 | Cell spreading area (figure 6b) [2, 19]: 2145 | Cell density (figure 6c) [2, 20]: 90 | Cell spreading area (figure 6b) [2, 20]: 2068 | Cell density (figure 6c) [2, 21]: 83 | Cell spreading area (figure 6b) [2, 21]: 1652 | Cell density (figure 6c) [2, 22]: 81 | Cell spreading area (figure 6b) [2, 22]: 1526.5 | Cell density (figure 6c) [2, 23]: 76 | Cell spreading area (figure 6b) [2, 23]: 1753 | Cell density (figure 6c) [2, 24]: 75 | Cell spreading area (figure 6b) [2, 24]: 1586.3 | Cell density (figure 6c) [2, 25]: 82 | Cell spreading area (figure 6b) [2, 25]: 1632 | Cell density (figure 6c) [2, 26]: 72 | Cell spreading area (figure 6b) [2, 26]: 1552.3 | Cell density (figure 6c) [2, 27]: 85 | Cell spreading area (figure 6b) [2, 27]: 1596.3 | Cell density (figure 6c) [2, 28]: 68 | Cell spreading area (figure 6b) [2, 28]: 1550 | Cell density (figure 6c) [2, 29]: 83 | Cell spreading area (figure 6b) [2, 29]: 1620 | Cell density (figure 6c) [2, 30]: 94 | Cell spreading area (figure 6b) [2, 30]: 2270.3 | Cell density (figure 6c) [2, 31]: 93 | Cell spreading area (figure 6b) [2, 31]: 1990.3 | Cell density (figure 6c) [2, 32]: 84 | Cell spreading area (figure 6b) [2, 32]: 2011.4 | Cell density (figure 6c) [2, 33]: 93 | Cell spreading area (figure 6b) [2, 33]: 1892.3 | Cell density (figure 6c) [2, 34]: 89 | Cell spreading area (figure 6b) [2, 34]: 2309.4 | Cell density (figure 6c) [2, 35]: 95 | Cell spreading area (figure 6b) [2, 35]: 2110.4 | Cell density (figure 6c) [2, 36]: 90 | Cell spreading area (figure 6b) [2, 36]: 2409.4 | Cell density (figure 6c) [2, 37]: 89 | Cell spreading area (figure 6b) [2, 37]: 1909 | Cell density (figure 6c) [2, 38]: 90 | Cell spreading area (figure 6b) [2, 38]: 1893 | Cell density (figure 6c) [2, 39]: 89 | Cell spreading area (figure 6b) [2, 39]: 2136 | Cell density (figure 6c) [2, 40]: 90 | Cell spreading area (figure 6b) [2, 40]: 2153.4 | Cell density (figure 6c) [2, 41]: 91 | Cell spreading area (figure 6b) [2, 41]: 2145 | Cell density (figure 6c) [2, 42]: 94 | Cell spreading area (figure 6b) [2, 42]: 2033 | Cell density (figure 6c) [2, 43]: 93 | Cell spreading area (figure 6b) [2, 43]: 2312.4 | Cell density (figure 6c) [2, 44]: 78 | Cell spreading area (figure 6b) [2, 44]: 2019.3 | Cell density (figure 6c) [2, 45]: 90 | Cell spreading area (figure 6b) [2, 45]: 2036 | Cell density (figure 6c) [2, 46]: 94 | Cell spreading area (figure 6b) [2, 46]: 2435.5 | Cell density (figure 6c) [2, 47]: 91 | Cell spreading area (figure 6b) [2, 47]: 2135
